Test results: patent US10329309B2, “3-(3H-imidazo[4,5-B]pyridin-2-yl)-1H-pyrazolo[4,3-B]pyridines and therapeutic uses thereof” (Samumed, LLC, priority 2015, dated 2019)
pEC50: −log10 of the molar value. One block for each compound: values may come before it.

Columns and labels:
[1] = system: primary human mesenchymal stem cells (hMSCs); assay: Induction of chondrogenesis in primary human mesenchymal stem cells (nodule imaging, Rhodamine B/Nile Red); format: cell-based; conditions: hMSC chondrogenesis; for Emax: TGF-β3 as positive control, read-out: Max. Activity as % TGF-β3 activity; for EC50: concentration required to induce 50% levels of chondrogenesis vs TGF-β3, read-out: Conc (nM) of 50% TGF-β3 activity
Procedure: Representative compounds were screened using primary human mesenchymal stem cells (hMSCs) to determine their ability to induce chondrogenesis (process by which cartilage is developed).
Primary human mesenchymal stem cells (hMSCs) were purchased from Lonza (Walkersville, Md.) and expanded in Mesenchymal Stem Cell Growth Media (Lonza). Cells between passage 3 and 6 were used for the experiments.
Each compound was dissolved in DMSO as a 10 mM stock and used to prepare compound source plates. For the 96 well assay, serial dilution (1:3, 6-point dose-response curves from 2700 nM to 10 nM) and compound transfer was performed using the ECHO 550 (Labcyte, Sunnyvale, Calif.) into 96-well clear bottom assay plates (Greiner Bio-One) with appropriate DMSO backfill for a final DMSO concentration of 0.03%. hMSCs were plated at 20,000 cells/well in 250 μL/well Incomplete Chondrogenic Induction Medium (Lonza; DMEM, dexamethasone, ascorbate, insulin-transferrin-selenium [ITS supplement], gentamycin-amphotericin [GA-1000], sodium pyruvate, proline and L-glutamine). TGF-−3 (10 ng/mL) was used as a positive control for differentiation while negative control wells were treated with 75 nL DMSO for normalization and calculating EC50 values. For the 384 well assay, serial dilution (1:3, 8-point dose-response curves from 5000 nM to 2.2 nM) and compound transfer was performed using the ECHO 550 (Labcyte, Sunnyvale, Calif.) into 384-well clear bottom assay plates (Greiner Bio-One) with appropriate DMSO backfill for a final DMSO concentration of 0.03%. hMSCs were plated at 8,000 cells/well in 80 μL/well Incomplete Chondrogenic Induction Medium (Lonza; DMEM, dexamethasone, ascorbate, insulin-transferrin-selenium [ITS supplement], gentamycin-amphotericin [GA-1000], sodium pyruvate, proline and L-glutamine). TGF-β3 (10 ng/mL) was used as a positive control for differentiation while negative control wells were treated with 25 nL DMSO for normalization and calculating EC50 values. Cells were incubated at 37° C. and 5% CO2 for 6 days. To image chondrogenic nodules, the cells were fixed using 4% formaldehyde (Electron Microscopy Sciences), and stained with 2 μg/mL Rhodamine B (Sigma-Aldrich) and 20 μM Nile Red (Sigma-Aldrich) [Johnson K., et. al, A Stem Cell-Based Approach to Cartilage Repair, Science, (2012), 336(6082), 717-721]. The nodules imaged (25 images per well for 96 well plates and 9 images per well for 384 well plates at 10× magnification) by excitation at 531 nm and emission at 625 nm and quantified using the CellInsight CX5 (Thermo Scientific). Area of nodules in each well was normalized to the average of 3 DMSO treated wells on the same plate using Excel (Microsoft Inc.). The normalized averages (fold change over DMSO) of 2 or 3 replicate wells for each compound concentration were calculated. Due to solubility limitations of some of the compounds, curve fitting was incomplete leading to inaccurate EC50 determinations.
Using TGF-β3 as a positive control, the concentration of representative compounds required to induce 50% levels of chondrogenesis is reported. In addition, the maximum activity of each compound and the respective dose that each compound reached maximum chondrogenesis activity is reported.

[2] = system: primary human fibroblasts derived from IPF patients (LL29 cells), α-smooth muscle actin (αSMA); assay: Inhibition of the fibrotic process: TGF-β1-treated primary human fibroblasts from IPF patients, αSMA staining; format: cell-based; conditions: Fibroblast, 96 h, 4 days; for pEC50: LL29 fibroblasts from IPF patients, TGF-β1 20 ng/mL, inhibition of fibrotic process; for inhibition at 10 µM: LL29 fibroblasts, TGF-β1 treated, read-out: percent inhibition at 10 μM (given for EC50 of >10 μM)
Outline: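 Potency reflects suppression of TGF-β1-driven αSMA expression in IPF patient fibroblasts over 4 days. Values are EC50s from normalized αSMA-positive cell counts, with % inhibition at 10 μM when EC50 exceeded 10 μM.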

Compound: CCCC(=O)Nc1cncc(-c2ccc3[nH]nc(-c4nc5c(-c6cc(F)cc(CNS(C)(=O)=O)c6)ccnc5[nH]4)c3n2)c1 [Compound 493, N-(5-(3-(7-(3-fluoro-5-(methylsulfonamidomethyl)phenyl)-3H-imidazo[4,5-b]pyridin-2-yl)-1H-pyrazolo[4,3-b]pyridin-5-yl)pyridin-3-yl)butyramide]
Emax [1]: 43% | pEC50 [2]: < 5.00 | inhibition at 10 µM [2]: 0%

Compound: CN1CCN(c2ccnc3[nH]c(-c4n[nH]c5ccc(-c6cncc(N)c6)nc45)nc23)CC1 [Compound 227, 5-(3-(7-(4-methylpiperazin-1-yl)-3H-imidazo[4,5-b]pyridin-2-yl)-1H-pyrazolo[4,3-b]pyridin-5-yl)pyridin-3-amine]
Emax [1]: 47% | pEC50 [2]: < 5.00 | inhibition at 10 µM [2]: 32.8%

Compound: Cc1cn(-c2ccnc3[nH]c(-c4n[nH]c5ccc(-c6cncc(CN7CCCC7)c6)nc45)nc23)cn1 [Compound 210, 3-(7-(4-methyl-1H-imidazol-1-yl)-3H-imidazo[4,5-b]pyridin-2-yl)-5-(5-(pyrrolidin-1-ylmethyl)pyridin-3-yl)-1H-pyrazolo[4,3-b]pyridine]
Emax [1]: 49% | pEC50 [2]: 5.17

Compound: CC(C)C(=O)Nc1cncc(-c2ccc3[nH]nc(-c4nc5c(-c6cccnc6)ccnc5[nH]4)c3n2)c1 [Compound 93, N-(5-(3-(7-(pyridin-3-yl)-3H-imidazo[4,5-b]pyridin-2-yl)-1H-pyrazolo[4,3-b]pyridin-5-yl)pyridin-3-yl)isobutyramide]
Emax [1]: 26% | pEC50 [2]: < 5.00 | inhibition at 10 µM [2]: 0%

Compound: CN(C)Cc1cncc(-c2ccc3[nH]nc(-c4nc5c(N6CCCCC6)ccnc5[nH]4)c3n2)c1 [Compound 181, N,N-dimethyl-1-(5-(3-(7-(piperidin-1-yl)-3H-imidazo[4,5-b]pyridin-2-yl)-1H-pyrazolo[4,3-b]pyridin-5-yl)pyridin-3-yl)methanamine]
Emax [1]: 44% | pEC50 [2]: 5.87

Compound: Cc1cn(-c2ccnc3[nH]c(-c4n[nH]c5ccc(-c6cncc(NC(=O)CC(C)C)c6)nc45)nc23)cn1 [Compound 198, 3-methyl-N-(5-(3-(7-(4-methyl-1H-imidazol-1-yl)-3H-imidazo[4,5-b]pyridin-2-yl)-1H-pyrazolo[4,3-b]pyridin-5-yl)pyridin-3-yl)butanamide]
Emax [1]: 27% | pEC50 [2]: < 5.00 | inhibition at 10 µM [2]: 0%

Compound: Fc1cccc(-c2ccnc3[nH]c(-c4n[nH]c5ccc(-c6ccncc6)nc45)nc23)c1 [Compound 18, 3-(7-(3-fluorophenyl)-3H-imidazo[4,5-b]pyridin-2-yl)-5-(pyridin-4-yl)-1H-pyrazolo[4,3-b]pyridine]
Emax [1]: 42% | pEC50 [2]: < 5.00 | inhibition at 10 µM [2]: 21.4%

Now from value to compound, other results behind:

EC50 [1]: 300 nM
Compound: Cc1cn(-c2ccnc3[nH]c(-c4n[nH]c5ccc(-c6cncc(NC(=O)C7CCC7)c6)nc45)nc23)cn1 [Compound 217, N-(5-(3-(7-(4-methyl-1H-imidazol-1-yl)-3H-imidazo[4,5-b]pyridin-2-yl)-1H-pyrazolo[4,3-b]pyridin-5-yl)pyridin-3-yl)cyclobutanecarboxamide]
Emax [1]: 69% | pEC50 [2]: 5.21

EC50 [1]: 10 nM
Compound: CCCCC(=O)Nc1cncc(-c2ccc3[nH]nc(-c4nc5c(-c6cc(F)cc(NCCN(C)C)c6)ccnc5[nH]4)c3n2)c1 [Compound 467, N-(5-(3-(7-(3-((2-(dimethylamino)ethyl)amino)-5-fluorophenyl)-3H-imidazo[4,5-b]pyridin-2-yl)-1H-pyrazolo[4,3-b]pyridin-5-yl)pyridin-3-yl)pentanamide]
Emax [1]: 71% | pEC50 [2]: 5.65

EC50 [1]: 10 nM
Compound: Fc1cccc(-c2ccnc3[nH]c(-c4n[nH]c5ccc(C6CCNCC6)nc45)nc23)c1 [Compound 505, 3-(7-(3-fluorophenyl)-3H-imidazo[4,5-b]pyridin-2-yl)-5-(piperidin-4-yl)-1H-pyrazolo[4,3-b]pyridine]
Emax [1]: 51% | pEC50 [2]: 5.31

EC50 [1]: 10 nM
Compound: CC(C)(C)C(=O)Nc1cncc(-c2ccc3[nH]nc(-c4nc5c(-c6ccc(F)cc6)ccnc5[nH]4)c3n2)c1 [Compound 36, N-(5-(3-(7-(4-fluorophenyl)-3H-imidazo[4,5-b]pyridin-2-yl)-1H-pyrazolo [4,3-b]pyridin-5-yl)pyridin-3-yl)pivalamide]
Emax [1]: 63% | pEC50 [2]: 5.59

EC50 [1]: 2 nM
Compound: Fc1cccc(-c2ccnc3[nH]c(-c4n[nH]c5ccc(-c6cncc(OC7CCNCC7)c6)nc45)nc23)c1 [Compound 512, 3-(7-(3-fluorophenyl)-3H-imidazo[4,5-b]pyridin-2-yl)-5-(5-(piperidin-4-yloxy)pyridin-3-yl)-1H-pyrazolo[4,3-b]pyridine]
Emax [1]: 93% | pEC50 [2]: 5.78

EC50 [1]: 7 nM
Compound: Fc1cccc(-c2ccnc3[nH]c(-c4n[nH]c5ccc(-c6cn[nH]c6)nc45)nc23)c1 [Compound 507, 3-(7-(3-fluorophenyl)-3H-imidazo[4,5-b]pyridin-2-yl)-5-(1H-pyrazol-4-yl)-1H-pyrazolo[4,3-b]pyridine]
Emax [1]: 57% | pEC50 [2]: < 5.00 | inhibition at 10 µM [2]: 16.2%

EC50 [1]: 900 nM
Compound: Fc1cccc(-c2ccnc3[nH]c(-c4n[nH]c5ccc(-c6cncc(CN7CCC(F)(F)C7)c6)nc45)nc23)c1 [Compound 26, 5-(5-((3,3-Difluoropyrrolidin-1-yl)methyl)pyridin-3-yl)-3-(7-(3-fluorophenyl)-3H-imidazo[4,5-b]pyridin-2-yl)-1H-pyrazolo[4,3-b]pyridine]
Emax [1]: 247% | pEC50 [2]: 6.46
